According to patent US20130059890A1, “ANTIVIRAL AGENTS” (SYDNEY WEST AREA HEALTH SERVICE, priority 2009, published 2013):
Entries after “also recorded” stand apart in the source; their conditions may differ.

Test system: HCV (JFH-1) infected Huh7 cells
Conditions: 24 hours; for effect on HCV replication (in words): HCV RNA by qPCR (FIG. 9; discussion)
From the text: Huh7 cells were infected with the JFH-1 strain of hepatitis C virus (genotype 2a) as previously described in Wakita et al., (2005), “Production of infectious hepatitis C virus in tissue culture from a cloned viral genome”, Nat. Med., 11(7):791-796). Briefly, pJFH-1 plasmids encoding full length HCV genome (provided by T. Wakita, National Institute of Infectious Diseases, Japan) were linearized and HCV RNA was synthesized using T7 RiboMAX™ Express Large Scale RNA Production System (Promega). 10 μg of HCV RNA was added to 1.6×10^6 Huh7 cells suspended in 800 ul PBS buffer. A Bio-Rad Gene Pulser system was used to deliver a single pulse at 0.34 kV, 975 μF, using 4 mm electroporation cuvettes. Cells were cultured at 37° C. in a 5% CO2 atmosphere in Dulbecco's modified Eagle's medium (DMEM) supplemented with 10% fetal bovine serum for 10 days (Gibco).
HCV RNA was amplified from infected Huh7 cells using specific primers targeting the 5′ noncoding region under the following conditions: 10 min at 95° C.; 40 cycles of 94° C. for 15 s and 60° C. for 45 s. Samples were analysed in triplicate and relative expression of HCV RNA normalised to 18s.
JFH-1 infected Huh7 cells cultured in 6 well plates were treated with HU-210 (100 nM), either alone or with increasing concentrations of the antagonists NlDA-41020 or (S)-SLV-319 (1 nM, 10 nM, 100 nM and 1 μM). Untreated cells and cells treated with CB1 antagonist alone (100 nM) were used as controls. After 24 hours cells were harvested, total RNA extracted, and HCV RNA measured by qPCR. Three replicate experiments were performed for each set of conditions and mean values calculated.

Row | SMILES | effect on HCV replication (in words) | increase of HCV replication (HU-210 100 nM, HCV RNA by qPCR normalised to 18s (FIG. 7)) [%]
1 | CN=C(NS(=O)(=O)c1ccc(Cl)cc1)N1C[C@H](c2ccccc2)C(c2ccc(Cl)cc2)=N1 [(S)-SLV-319, 3-(4-chlorophenyl)-N-[(4-chlorophenyl)sulfonyl]-4,5-dihydro-N′-methyl-4-phenyl-1H-pyrazole-1-carboximidamide] | inhibit HCV replication in a dose-dependent manner; also recorded: inhibited | –
2 | CCCCCCC(C)(C)c1cc(O)c2c(c1)OC(C)(C)[C@@H]1CC=C(CO)C[C@@H]21 [HU-210] | stimulated | 40
